This note sets out measurements from PubChem BioAssay (NCI).

Some test systems named below: K-562 leukemia; OVCAR-5 ovarian; TK-10 renal; HCT-15 colon; OVCAR-3 ovarian; SF-268 CNS; PC-3 prostate; HOP-62 NSCLC; BT-549 breast; LOX IMVI melanoma.
Common to all, as to test: growth of human tumour cells (NCI), 48 h

Where “and” joins values, the source holds several entries; their conditions need not be identical. Equal values may be shown once.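 These data come from cells grown in 96-well plates and exposed to compound for 48 hours at five concentrations. GI50 = concentration required for 50% inhibition of growth. TGI is the concentration that stops growth completely.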 Peptide text beside a SMILES is read from it. * marks the point of attachment. Boc = CC(C)(C)OC(=O)*

As to `C=C(CCC(C(=O)O)C1CCC2(C)C3=C(CCC12C)C1(C)CCC(O)C(C)(C)C1CC3)C(C)C` (centres undefined), the TGI is 43.3 µM in the experiment on K-562 leukemia; > 100 µM in the experiment with OVCAR-5 ovarian; > 100 µM with TK-10 renal; 68.5 µM with HCT-15 colon; > 100 µM in the experiment on OVCAR-3 ovarian; > 100 µM in the experiment with SF-268 CNS. Further, the TGI is > 100 µM with PC-3 prostate, > 100 µM in the experiment with HOP-62 NSCLC, > 100 µM in the experiment on BT-549 breast and 89 µM in the experiment on LOX IMVI melanoma.
In the case of `CN1C(=O)[C@@]2(C=CC3(CC2)OCCO3)c2ccccc21`, the TGI was > 50 µM in the experiment with K-562 leukemia; > 50 µM with OVCAR-5 ovarian; > 50 µM in the experiment on TK-10 renal; > 50 µM in the experiment with HCT-15 colon; > 50 µM in the experiment with OVCAR-3 ovarian; 32.2 µM with SF-268 CNS. The TGI with PC-3 prostate, in the experiment with HOP-62 NSCLC, in the experiment on BT-549 breast and with LOX IMVI melanoma was > 50 µM throughout.
For `COc1ccc(C[C@H]2COC(=O)[C@@H]2Cc2cc(OC)c(OC)c(OC)c2)cc1OC`, the TGI in the experiment on K-562 leukemia, with OVCAR-5 ovarian, in the experiment on TK-10 renal, in the experiment on HCT-15 colon, in the experiment with OVCAR-3 ovarian and with SF-268 CNS was > 100 µM in each case. Moreover, the TGI with PC-3 prostate, with HOP-62 NSCLC, in the experiment with BT-549 breast and in the experiment on LOX IMVI melanoma was > 100 µM throughout.
On to `C=CCN1C(=O)/C(=C/c2ccc(Cl)cc2)N=C1SC1OC(COC(C)=O)C(OC(C)=O)C(OC(C)=O)C1OC(C)=O` (centres undefined), for which the GI50 was > 61.7 µM and 13.1 µM in the experiment with K-562 leukemia; > 66.9 µM and 32.7 µM in the experiment on OVCAR-5 ovarian; 41.1 µM and 16 µM in the experiment with HCT-15 colon; 9.17 µM and 31 µM in the experiment with PC-3 prostate; 5.66 µM and 21.9 µM in the experiment with HOP-62 NSCLC. The TGI in the experiment on K-562 leukemia is > 100 µM and 76.3 µM; in the experiment with OVCAR-5 ovarian, > 100 µM; in the experiment on TK-10 renal, > 100 µM; with HCT-15 colon it was > 100 µM; in the experiment on OVCAR-3 ovarian it was > 100 µM; with SF-268 CNS, 5.46 µM. The TGI was > 100 µM in the experiment on PC-3 prostate; 20.6 µM and 62.6 µM in the experiment with HOP-62 NSCLC; > 100 µM and 84.1 µM in the experiment with BT-549 breast; > 100 µM and 89.8 µM with LOX IMVI melanoma.
As for `Clc1ncc(C(Cl)(Cl)Cl)nc1-c1ccccc1`, the TGI is 12.4 µM in the experiment with K-562 leukemia; 30.9 µM in the experiment on OVCAR-5 ovarian; 5.39 µM in the experiment on TK-10 renal; 3.42 µM in the experiment with HCT-15 colon; 3.1 µM with OVCAR-3 ovarian; 5.09 µM in the experiment with SF-268 CNS. Besides, the TGI with PC-3 prostate came out at 3.38 µM; with HOP-62 NSCLC, 6.08 µM; in the experiment on BT-549 breast, 8.81 µM; with LOX IMVI melanoma, 15.4 µM.
For the compound `COC1(OC)/C(=C(\N)C=O)NC(C)(C)N1O`, the TGI in the experiment on K-562 leukemia is > 100 µM; in the experiment on OVCAR-5 ovarian it was > 100 µM; in the experiment on OVCAR-3 ovarian, 97.5 µM; with PC-3 prostate, > 100 µM; with HOP-62 NSCLC, > 100 µM; with BT-549 breast it was > 100 µM. Moreover, in the experiment with LOX IMVI melanoma, the TGI is > 100 µM.
Turning to `CN(C)CCNC(=O)c1cccc2c(NC(CS)C(=O)O)c3ccccc3nc12` (centres undefined), the TGI with K-562 leukemia is > 100 µM; with OVCAR-5 ovarian, 60.4 µM; in the experiment with TK-10 renal, > 100 µM; in the experiment with HCT-15 colon, 26.3 µM; with OVCAR-3 ovarian, > 100 µM; with SF-268 CNS it was 39.6 µM. Besides, the TGI was 28.2 µM with PC-3 prostate, 41.6 µM in the experiment on HOP-62 NSCLC, 45.6 µM in the experiment on BT-549 breast and 21.1 µM in the experiment on LOX IMVI melanoma.
Take `COc1cc(C2S/C(=C/c3ccccc3)C(=O)N2c2ccc(Cl)cc2)cc(OC)c1OC` (centres undefined): the TGI in the experiment with K-562 leukemia, in the experiment with OVCAR-5 ovarian, in the experiment with TK-10 renal, in the experiment on HCT-15 colon, in the experiment on OVCAR-3 ovarian and with SF-268 CNS was > 100 µM each time. Besides, the TGI in the experiment with PC-3 prostate is > 84.4 µM; in the experiment on HOP-62 NSCLC it was > 100 µM; in the experiment on BT-549 breast, > 100 µM; in the experiment with LOX IMVI melanoma it was 52.4 µM.
Regarding `CC1=CC(c2ccccc2)n2c(nc3cc4ccccc4cc32)N1` (centres undefined), the TGI with K-562 leukemia, with OVCAR-5 ovarian, with TK-10 renal, in the experiment with HCT-15 colon, in the experiment with OVCAR-3 ovarian and with SF-268 CNS was > 100 µM throughout. For the same compound, the TGI with PC-3 prostate, in the experiment on BT-549 breast and in the experiment on LOX IMVI melanoma was > 100 µM each time.
`O=C1N2CCc3c([nH]c4ccccc34)C23CC2CCCC12S3` (centres undefined): the TGI with K-562 leukemia, with OVCAR-5 ovarian, with TK-10 renal, in the experiment on HCT-15 colon, in the experiment on OVCAR-3 ovarian and in the experiment with SF-268 CNS was > 50 µM throughout. Further, the TGI with PC-3 prostate, with HOP-62 NSCLC, with BT-549 breast and with LOX IMVI melanoma was > 50 µM in each case.
`CC(C)CC1c2[nH]c3ccccc3c2C[C@H]2C(=O)NC(COC(C)(C)C)C(=O)N12` (some centres undefined): the TGI in the experiment with K-562 leukemia amounted to 92.7 µM; in the experiment on OVCAR-5 ovarian it was 54.8 µM; in the experiment on TK-10 renal it was 56.3 µM; with HCT-15 colon, 80.2 µM; with OVCAR-3 ovarian it was 16.3 µM; in the experiment with SF-268 CNS, 57.5 µM. The TGI with PC-3 prostate turned out to be 55.1 µM; with HOP-62 NSCLC, 79.3 µM; in the experiment with BT-549 breast it was 60.9 µM; in the experiment on LOX IMVI melanoma it was 34.7 µM.
With `CSCCC(NC(=O)C(CC(C)C)NC(=O)CNC(=O)OC(C)(C)C)C(=O)N(C)C` (stereo not drawn) (Boc-Gly-Leu-Met-NMe2; configuration not given here), the TGI in the experiment with K-562 leukemia, in the experiment with OVCAR-5 ovarian, in the experiment with TK-10 renal, in the experiment with HCT-15 colon, in the experiment on SF-268 CNS and in the experiment with PC-3 prostate was > 100 µM in each case. In addition, the TGI in the experiment on BT-549 breast and with LOX IMVI melanoma was > 100 µM each time.
Regarding `CCOC(=O)Cc1nc2c(=O)[nH]cnc2n1C1OC(COC(C)=O)C(OC(C)=O)C1OC(C)=O` (centres undefined), the TGI in the experiment on K-562 leukemia, with OVCAR-5 ovarian, in the experiment on TK-10 renal, in the experiment with HCT-15 colon, with OVCAR-3 ovarian and with SF-268 CNS was > 100 µM in each case. Moreover, the TGI with PC-3 prostate, in the experiment with HOP-62 NSCLC, in the experiment on BT-549 breast and in the experiment on LOX IMVI melanoma was > 100 µM each time.
